This note sets out measurements from patent US20230416298A1, “PRODRUGS OF NEUROACTIVE STEROIDS” (Brii Biosciences, Inc., priority 2020, published 2023).

The nature of one data set: Plasma stability. Type of data set: in vitro ADME. To be noted: 37° C.; for Stability in Human Plasma Formation of parent compound: 2 μM, Yes/No; for half-life at 2 μM: pooled plasma, pH 7.4, human plasma, time points 0, 10, 30, 60 and 120 min. Here is the method:
The pooled frozen plasma was thawed in a water bath at 37° C. prior to experiment. Plasma was centrifuged at 4000 rpm for 5 min and the clots were removed if any. The pH will be adjusted to 7.4±0.1 if required.
Preparation of test compounds and positive control (propantheline bromide): 1 mM intermediate solution was prepared by diluting 10 μL of the stock solution with 90 μL MeOH; 1 mM intermediate of positive control Propantheline was prepared by diluting 10 μL of the stock solution with 90 μL ultrapure water. 100 μM dosing solution was prepared by diluting 20 μL of the intermediate solution (1 mM) with 180 μL MeOH. 98 μL of blank plasma was spiked with 2 μL of dosing solution (100 μM) to achieve 2 μM of the final concentration in duplicate and samples were incubated at 37° C. in a water bath. At each time point (0,10, 30, 60 and 120 min), 400 μL of stop solution (0.1% FA in MeOH containing 200 ng/mL tolbutamide and 200 ng/mL Labetalol) was added to precipitate protein and mixed thoroughly. Centrifuged sample plates at 4,000 rpm for 10 min. An aliquot of supernatant (100 μL) was transferred from each well to another plates.
Data analysis: The % remaining of test compound after incubation in plasma was calculated using following equation:
% Remaining=[…]×(PAR at appointed incubation time/PAR at T0 time)
where PAR is the peak area ratio of analyte versus internal standard (IS) (LC/MS/MS mobile phase condition: 0.1% Formic Acid in Water/0.1% Formic Acid in Acetonitrile. The appointed incubation time points are TO (0 min), Tn (n=0, 10, 30, 60, 120 min).

A further data set can be described thus: Liver S9 stability. Type of data set: in vitro ADME. To be noted: human liver S9, 37° C.; for half-life at 1 μM: time points up to 60 min; for Stability in Human Liver S9 Formation of parent compound: Yes/No. As to the method: Intermediate solution: Dilute 5 μL of compounds or controls (7-ethoxycoumarin) from stock solution (10 mM) with 495 μL MeOH (Conc.: 100 μM, 1% DMSO, 99% MeOH). Stop solution: Cold ACN (including 100 ng/mL Tolbutamide and Labetalol as internal standard). Add 2 μL test compound or control working solution/well to all plates (T0, T5, T10, T20, T30, T60, NCF60) except matrix blank. Add 600 μL/well stop solution (cold in 4° C., including 100 ng/mL Tolbutamide/100 ng/mL Labetalol) to terminate the TO plate, then put it on ice. Dispense 840 μL/well S9 solution to 96-well plate as reservoir according to plate map. Then add 100 μL/well to every plate by Apricot. Incubate S9 solution and compound at 37° C. for about 10 min except NCF60 and TO. After adding S9 solution and 98 μ LPB buffer to NCF60, incubate at 37° C. without pre-warming, start timer 1. After 60 min, add 600 μL/well stop solution to terminate the reaction. After pre-warming, dispense 760 μL/well cofactor solution to 96-well plate as reservoir according to plate map. Then add 98 μL/well to every plate by Apricot to start reaction. Incubate at 37° C., start timer 2, Add 600 μL/well stop solution (cold in 4° C., including 100 ng/mL Tolbutamide and Labetalol) to terminate the reaction. Samples are centrifuged at 4000 rpm for 20 min. While centrifuging, load 8×new 96-well plate with 300 μL HPLC water, then transfer 100 μL supernatant, mix with water for LC/MS/MS, transferred to Bioanalytical Services for LC-MS/MS analysis. Use equation of first order kinetics to calculate t1/2 and CL: Equation of first order kinetics: […]

On to `CCCCOC(=O)O[C@@H]1CC[C@@]2(C)[C@@H](CC[C@@H]3[C@@H]2CC[C@]2(C)[C@@H](C(C)=O)CC[C@@H]32)C1` [Example 21, [(3R,5S,8R,9S,10S,13S,14S,17S)-17-acetyl-10,13-dimethyl-2,3,4,5,6,7,8,9,11,12,14,15,16,17-tetradecahydro-1H-cyclopenta[a]phenanthren-3-yl]butyl carbonate], for which, in the data set “Plasma stability”, the “Stability in Human Plasma Formation of parent compound” value (shortened to “Stability in Human Plasma Formation”) was “No” and the half-life at 2 μM was greater than 200 min. Moreover, in “Liver S9 stability”, the half-life at 1 μM is less than 50 min and the “Stability in Human Liver S9 Formation of parent compound” value (shortened to “Stability in Human Liver S9 Formation”) is “Yes”.

On to `CC(=O)[C@H]1CC[C@H]2[C@@H]3CC[C@H]4C[C@H](OC(=O)N(C)CCOC(=O)C(C)C)CC[C@]4(C)[C@H]3CC[C@]12C` [Example 23, 2-[[(3R,5S,8R,9S,10S,13S,14S,17S)-17-acetyl-10,13-dimethyl-2,3,4,5,6,7,8,9,11,12,14,15,16,17-tetradecahydro-1H-cyclopenta[a]phenanthren-3-yl]oxycarbonyl-methyl-amino]ethyl 2-methylpropanoate], for which, in the data set “Plasma stability”, the “Stability in Human Plasma Formation” value was “No” and the half-life at 2 μM was in the range of 50 to 200 min. In addition, in the data set “Liver S9 stability”, the half-life at 1 μM was less than 50 min and the “Stability in Human Liver S9 Formation” value is given as “Yes”.

For `CC(=O)OCCCCC(=O)O[C@@H]1CC[C@@]2(C)[C@@H](CC[C@@H]3[C@@H]2CC[C@]2(C)[C@@H](C(C)=O)CC[C@@H]32)C1` [Example 16, [(3R,5S,8R,9S,10S,13S,14S,17S)-17-acetyl-10,13-dimethyl-2,3,4,5,6,7,8,9,11,12,14,15,16,17-tetradecahydro-1H-cyclopenta[a]phenanthren-3-yl] 5-acetoxypentanoate], in the data set “Plasma stability”, the “Stability in Human Plasma Formation” value was “No” and the half-life at 2 μM is 50 to 200 min. Moreover, in “Liver S9 stability”, the half-life at 1 μM is less than 50 min and the “Stability in Human Liver S9 Formation” value was “No”.
